# Patent US20090118337A1, “Methods and compositions for treating inflammation” (priority 2005, published 2009)
# “Also recorded” adds a separate entry of the source.
# What was measured:
# [1] = system: amiloride-sensitive sodium conductance; details: cells grown with 20 μM I172; cited from earlier work
# [2] = system: interaction between PPARγ and other transcription factors; experiment: Interaction of PPARγ with other transcription factors in well differentiated airway epithelial cells treated with I172; type: cell-based, human; details: I172 20 uM for 72 hr; particularly following stimulation with TNFα/IL1β
# Procedure: Transcription Factor Arrays: TranSignal TF-TF Interaction Array I (Panomics) was processed according to the manufacturer's instructions. Nuclear extracts from 16HBEo-sense and antisense cells were incubated with biotin-labeled double-stranded oligonucleotides. PPARγ was immunoprecipitated with 3 μg of monoclonal antibody and Dynabeads (Dynal), which are magnetic protein G beads. Free cis-elements and non-specific binding proteins were washed away. PPARγ associated biotin-labeled probes were eluted from the beads and hybridized to TranSignal Protein/DNA array membranes. The arrays were blocked and incubated with Streptavidin-HRP and developed with a chemiluminescent detection system.
# In order to test the impact of CFTR deficiency on the interaction of PPAR-γ with other transcription factors, we treated well differentiated airway epithelial cells grown at the ALI with I172 (20 uM), an inhibitor of CFTR activity, continuously for 72 hr prior to preparation of nuclear extracts or stimulation. […] This model allows one to compare, in well-differentiated airway epithelial cells that have identical genetic endowment at all loci, the effect of CFTR inhibition on various cellular processes. […] During the course of these experiments, cells from the airways of a patient with CF of genotype ΔF508/ΔF508, obtained at transplant, became available and were cultured at the air-liquid interface.
# [3] = system: IL-8; experiment: IL-8 secretion of cells grown with I172; type: cell-based, human; details: cells grown with I172, day 3
# Procedure: (§1) At three or four weeks, on day 0, cells are switched to submerged culture (liquid-liquid interface, LLI) and treated with either DMSO 1:1000 (vehicle control, normal cells, Sigma, St. Louis, Mo.), or 20 μM CFTRinh-172 (kindly provided by Alan Verkman) prepared in DMSO, and diluted from a 1:1000 stock. Drugs are added to both the basolateral (1 or 2 ml volume, according to filter size) and the apical side (0.35 or 1.5 ml) and media replenished every 24H. […] At day 3, cells were committed to inflammatory stimulation with TNF IL-1 or PAO1 as indicated below. Cells committed to PAO1 stimulation were switched to serum-free media 24H prior PAO1 stimulation, kept in serum-free media until the end of the experiment, and media replenished every 12H during that time. Serum-free media contained 1:1 DMEM-Ham's F-12, pH. 7.2, L-glutamine 2.5 mM, Penicillin/Streptomycin 100 units/100 μg per ml, gentamicin 50 μg/ml, amphotericin B 1.25 μg/ml from Gibco, Invitrogen Corporation, Carlsbad, Calif.; fluconazole 2 μg/ml (DIFLUCON®, Pfizer); transferrin 5 μg/ml, hydrocortisone 5 μM, insulin 5 μg/ml, endothelial cell growth supplement 20 μg/mil, and bovine serum albumin 1 mg/ml from Sigma, St. Louis, Mo. Serum-containing media had the same antibiotics present as the serum-free media. Antibiotics were not present during PAO1 stimulation.
# [4] = system: Smad3; experiment: Smad3 expression in cells grown with I172; type: cell-based, human; details: cells grown with I172, day 3
# Procedure: as §1
# [5] = system: RhoA; experiment: Activated RhoA in cells grown with I172; type: cell-based, human; details: cells grown with I172, day 3
# Procedure: as §1
# [6] = system: well differentiated airway epithelial cells; details: 20 μM I172; cited from earlier work
# [7] = system: CF mice challenged with M57-15 P. aeruginosa; experiment: Acute Pseudomonas challenge model, CF mice (BAL inflammatory response); type: in vivo; details: pretreated by gavage, BAL 24 hours after P. aeruginosa challenge
# Procedure: Pioglitazone inhibits the inflammatory response in CF mice to acute administration of Pseudomonas: Mice pretreated with pioglitazone or vehicle by gavage, then challenged with prior to challenge with M57-15 P. aeruginosa, underwent BAL for inflammatory response outcome measures 24 hours after challenge. Cell counts, cytokine values, and body weight were recorded. […] CF mice treated with vehicle had marked increase in inflammatory response compared to WT mice treated with vehicle, as previously reported for untreated mice (FIGS. 12-14).
# In order to test the therapeutic potential of PPARγ agonists in CF animals, we utilized the acute pseudomonas challenge model in CF and non-CF mice, because it was the closest mimic of the acute pseudomonas challenge applied to the epithelial cells in culture. We administered pioglitazone by gavage because this is one of the two PPARγ agonists available for human use. […] However, the dose used in these studies was high compared to conventional human doses, on a weight basis, and the drug was administered prior to challenge, a luxury that may not be available for many patients with CF.
# [8] = system: NF-κB; experiment: NF-κB luciferase reporter gene assay in 16HBEo- cell pairs stimulated with PAO1; type: cell-based, human; details: PAO1 stimulation, FIG. 2
# Procedure: Cell lines: 16HBE-S and 16HBE-AS cells were grown in EMEM supplemented with 10% fetal bovine serum, 2 mM L-glutamine, 100 units/100 μg per ml of penicillin-streptomycin and 400 μg/ml G-418 as previously described.
# Reporter Gene Assays: Cells were seeded in 24-well tissue culture dishes 24 hours before transfection. 20 ug luciferase plasmid and 10 ug Renilla plasmid were mixed into 2 mls serum-free DMEM. NFκB luciferase and AP-1 plasmids were purchased from BD Biosciences CLONTECH. pRLTK was used as an internal control for transfection efficiency.
# 300 ul Lipofectamine PLUS reagent (Invitrogen) was mixed with 200 ul serum-free DMEM. The PLUS reagent and plasmid were incubated for 15 minutes at room temperature. 100 ul Lipofectamine was added to 2.4 ml serum-free DMEM.
# The lipofectamine and the DNA-PLUS solutions were mixed and incubated for an additional 15 minutes. The transfection mix was diluted into 20 mls of serum-free DMEM. 250 ul of diluted transfection mix was added to each well and the cells were incubated for 3 hours. Cells were lysed and the lysates assayed for luciferase activity.
# A final stock concentration of 10 mM troglitazone (Cayman Chemical) was dissolved in DMSO and diluted to various concentrations. DMSO was added to the cells as a control. […]
# [9] = high dose, CF; cited from earlier work
compound,measurement,setting,value
O=C(O)c1ccc(/C=C2\SC(=S)N(c3cccc(C(F)(F)F)c3)C2=O)cc1 [I172],amiloride-sensitive sodium conductance,[1],do not display increased amiloride-sensitive sodium conductance
same,interaction between PPARγ and other transcription factors,[2],less interaction
same,basal and stimulated secretion of IL-8,[3],increased basal and stimulated secretion of IL-8
same,Smad3 expression,[4],decreased Smad3 expression
same,activated RhoA,[5],increased activated RhoA
same,cell morphology by electron microscopy,[6],no decrease in cell viability or change in cell morphology
same,cell viability,[6],no decrease in cell viability; also recorded: without compromising cell viability
"CCc1ccc(CCOc2ccc(CC3SC(=O)NC3=O)cc2)nc1 (centres unmarked) [pioglitazone, 5-[4-[2-(5-ethylpyridin-2-yl)ethoxyl]benzyl]thiazolidine-2,4-dione]","inflammatory response (BAL cell counts, cytokine values, body weight) in CF mice",[7],"significant reduction of the inflammatory response; also recorded: In two of the three experiments, pioglitazone limited the inflammatory response; also recorded: significant reduction in inflammatory response"
"Cc1c(C)c2c(c(C)c1O)CCC(C)(COc1ccc(CC3SC(=O)NC3=O)cc1)O2 (single isomer, unassigned; (+)) [troglitazone, (+)-5[[4-[(3,4-dihydro-6-hydroxy-2,5,7,8-tetramethyl-2H-1-benzopyran-2-yl)methoxy]phenyl]methyl]-2,4thiazolidinedione]",activation of NF-κB driven luciferase activity,[8],significantly inhibited
CC(C)Cc1ccc(C(C)C(=O)O)cc1 (centres unmarked) [ibuprofen],incidence of gastrointestinal hemorrhage,[9],increased incidence
same,rate of decline of pulmonary function,[9],slowed
